# Experimental data taken from US20110136145A1, “METHODS FOR PROMOTING FUSION AND REPROGRAMMING OF SOMATIC CELLS” (THE JOHNS HOPKINS UNIVERSITY, priority 2008, published 2011).
# “Also recorded” adds a separate entry of the source.
# Biological target: T1, Jhdm2a (Homo sapiens, UniProt Q9Y4C1)
# T1 construct: expressed in transfected cells; host or cells: 293T cells
# T1 sequence (Q9Y4C1 1-1321): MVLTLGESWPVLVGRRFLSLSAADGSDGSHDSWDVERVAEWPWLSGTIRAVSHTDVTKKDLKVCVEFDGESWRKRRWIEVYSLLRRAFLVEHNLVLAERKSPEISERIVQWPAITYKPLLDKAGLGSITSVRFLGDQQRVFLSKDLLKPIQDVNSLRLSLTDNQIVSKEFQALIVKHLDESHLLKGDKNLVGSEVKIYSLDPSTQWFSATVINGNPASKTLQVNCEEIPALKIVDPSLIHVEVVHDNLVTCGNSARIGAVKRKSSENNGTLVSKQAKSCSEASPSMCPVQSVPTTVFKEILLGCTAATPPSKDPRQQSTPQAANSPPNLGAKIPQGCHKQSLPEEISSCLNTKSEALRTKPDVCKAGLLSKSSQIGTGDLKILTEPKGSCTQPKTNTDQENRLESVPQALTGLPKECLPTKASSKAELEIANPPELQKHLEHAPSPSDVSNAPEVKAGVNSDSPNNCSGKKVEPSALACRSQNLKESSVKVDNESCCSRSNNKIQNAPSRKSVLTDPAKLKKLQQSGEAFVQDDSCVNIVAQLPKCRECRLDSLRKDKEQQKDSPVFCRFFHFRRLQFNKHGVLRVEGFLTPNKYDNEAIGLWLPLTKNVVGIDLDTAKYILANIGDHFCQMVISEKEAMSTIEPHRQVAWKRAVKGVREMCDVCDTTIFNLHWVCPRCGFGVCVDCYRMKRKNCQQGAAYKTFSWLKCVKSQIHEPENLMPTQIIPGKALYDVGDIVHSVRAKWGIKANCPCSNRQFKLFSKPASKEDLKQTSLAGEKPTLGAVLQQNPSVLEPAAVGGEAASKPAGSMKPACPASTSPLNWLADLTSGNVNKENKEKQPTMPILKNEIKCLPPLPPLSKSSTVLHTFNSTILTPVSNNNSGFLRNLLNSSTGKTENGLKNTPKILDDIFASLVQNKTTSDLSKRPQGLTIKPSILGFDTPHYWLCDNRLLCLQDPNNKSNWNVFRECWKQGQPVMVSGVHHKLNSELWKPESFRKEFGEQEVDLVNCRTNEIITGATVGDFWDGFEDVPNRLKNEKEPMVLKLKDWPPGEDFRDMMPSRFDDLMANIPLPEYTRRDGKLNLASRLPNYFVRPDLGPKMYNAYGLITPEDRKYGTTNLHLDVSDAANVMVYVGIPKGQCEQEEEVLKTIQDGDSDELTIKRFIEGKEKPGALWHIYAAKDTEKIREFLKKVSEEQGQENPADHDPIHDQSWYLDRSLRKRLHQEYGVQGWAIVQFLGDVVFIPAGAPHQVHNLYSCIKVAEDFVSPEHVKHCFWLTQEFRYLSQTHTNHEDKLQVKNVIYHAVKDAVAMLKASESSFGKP
# Experiment: Immunolabeling assay of Jhdm2a-induced H3K9 demethylation in 293T cells
# Format: cell-based
# Settings: 10 μM; 293T cells transfected with Jhdm2a-EGFP; vs DMSO
# Description: (A) Inhibition of Jhdm2a induced histone demethylation by DMOG. Blocking effects of DMOG on Jhdm2a were examined in 293T cells transfected with a plasmid expressing Jhdm2a-EGFP fusion protein. In control cells treated with DMSO, histone 3 lysine 9 dimethylation (H3K9diM) immunostaining signal was lost in Jhdm2a-GFP transfected cells (arrows). […] DAPI labels all cell nuclei. Scale bar: 20 μm. (B-D) show DMOG attenuates ESC-induced reactivation of Oct4 expression from adult NSCs. […] Representative plots from multiple experiments are shown (B). Reprogramming frequencies from multiple experiments were quantified (C) for fusion population with the 48-hour treatment of DMSO or DMOG. Data represent mean±SEM. (n=3; ** P<0.01, Student's t-test). Shown in (D) is the cumulative distribution plot of DsRed+ population with graded GFP fluorescence intensities for comparison of the reprogramming efficacy in the presence of DMSO or DMOG (n=3 experiments; * P<0.01, Kolmogorov-Smirnov test).
# To confirm the blocking effects of DMOG on histone demethylases, an immuno labeling assay previously developed for JHDM2A was used. Overexpression of Jhdm2a in heterologous cell lines led to dramatic loss of H3K9 dimethylation, which was blocked by the DMOG treatment (10 μM FIG. 6A). […]
smiles,measurement,value
"COC(=O)CNC(=O)C(=O)OC [DMOG, dimethyloxalylglycine]",Jhdm2a-induced loss of H3K9 dimethylation,blocked; also recorded: H3K9 dimethylation signals are present in all cells
